Reference: ChEMBL document CHEMBL1132046, “Novel bisbenzamidines and bisbenzimidazolines as noncompetitive NMDA receptor antagonists” (Bioorg Med Chem Lett, 1999)

Tests used:
[1] = molecular target: Glutamate NMDA receptor; experiment: Inhibition of [3H]dizocilpine binding to N-methyl-D-aspartate (NMDA) receptor complex in rat brain membranes; type: cell membranes
[2] = organism: Rattus norvegicus; experiment: Protective potency against glutamate-induced neurotoxicity in cultures of embryonic rat brain at a concentration of 100 uM (p < 0.05); type: functional
[3] = organism: Rattus norvegicus; experiment: Protective potency against glutamate-induced neurotoxicity in cultures of embryonic rat brain at a concentration of 100 uM+Glutamate (100 uM); type: functional
[4] = organism: Rattus norvegicus; experiment: Protective potency against glutamate-induced neurotoxicity in cultures of embryonic rat brain at a compound concentration of 10 uM; type: functional
[5] = organism: Rattus norvegicus; experiment: Inhibitory activity (0.1 uM) against NMDA (30 uM) and glycine (10 uM) induced increase in [Ca2+]i in cultured forebrain neurons from fetal rat; type: functional; design: scale not given: the % may be the effect or the level left
[6] = organism: Rattus norvegicus; experiment: Inhibitory activity (1.0 uM) against NMDA (30 uM) and glycine (10 uM) induced increase in [Ca2+]i in cultured forebrain neurons from fetal rat; type: functional; design: scale not given: the % may be the effect or the level left
[7] = organism: Rattus norvegicus; experiment: Protective potency against glutamate-induced neurotoxicity in cultures of embryonic rat brain at a compound concentration of 100 uM; type: functional
[8] = organism: Rattus norvegicus; experiment: Protective potency against glutamate-induced neurotoxicity in cultures of embryonic rat brain at a compound concentration of 10 uM+Glutamate (100 uM); type: functional
[9] = organism: Rattus norvegicus; experiment: Inhibitory activity (10.0 uM) against NMDA (30 uM) and glycine (10 uM) induced increase in [Ca2+]i in cultured forebrain neurons from fetal rat; type: functional; design: scale not given: the % may be the effect or the level left

Work on `N=C(N)c1ccc(NC(=O)c2cccc(C(=O)Nc3ccc(C(=N)N)cc3)n2)cc1` yielded an IC50 [1] of 66 µM.

In the case of `N=C(N)c1ccc(NC(=O)c2cccc(C(=O)Nc3ccc(C(=N)N)cc3)c2)cc1`, the IC50 [1] is reported as > 200 µM.

`c1cc(N2CCCN(c3ccc(C4=NCCN4)cc3)CC2)ccc1C1=NCCN1` showed an IC50 [1] of 4.99 µM.

`c1cc(C2=NCCN2)ccc1OC[C@@H]1C[C@H]1COc1ccc(C2=NCCN2)cc1` gave an IC50 [1] of 16.5 µM.

In the case of `N=C(N)c1ccc(OCCCCCOc2ccc(C(=N)N)cc2)cc1` [PENTAMIDINE], the IC50 [1] is reported as 2.59 µM.

`N=C(N)c1ccc(N2CCN(c3ccc(C(=N)N)cc3)CC2)cc1` was tested, and the IC50 [1] was 5.32 µM.

In the case of `N[C@@H](CCC(=O)O)C(=O)O` [GLUTAMIC ACID], the Activity [2] is reported as 60%.

`c1cc(C2=NCCN2)ccc1CC1CCN(c2ccc(C3=NCCN3)cc2)CC1` gave an IC50 [1] of 6.29 µM.

Work on `N=C(N)c1ccc(N2CCCN(c3ccc(C(=N)N)cc3)CC2)cc1` yielded an Activity [3] of 98%, an Activity [4] of 100% and an Activity [5] of 111.26%. It also gave an Activity [6] of 67.04%, an Activity [7] of 87% and an Activity [8] of 99%. For the same compound, the Activity [9] was 37.58% and the IC50 [1] was 1.19 µM.

`c1cc(N2CCN(c3ccc(C4=NCCN4)cc3)CC2)ccc1C1=NCCN1` was tested, and the IC50 [1] was 18.2 µM.

For `C(=C1CCN(Cc2ccc(C3=NCCN3)cc2)CC1)c1ccc(C2=NCCN2)cc1`, the IC50 [1] was 35.6 µM.

`c1cc(C2=NCCN2)ccc1CC1CCCN(c2ccc(C3=NCCN3)cc2)C1` (configuration not stated) was tested, and the IC50 [1] was 7.84 µM.

Compound `C(=C1/CCCN(c2ccc(C3=NCCN3)cc2)C1)/c1ccc(C2=NCCN2)cc1` has an IC50 [1] of 8.35 µM.

Compound `N#Cc1ccc(N2CCCN(c3ccc(C#N)cc3)CC2)cc1` has an IC50 [1] of 45.8 µM.

`N=C(N)c1ccc(OC[C@@H]2C[C@H]2COc2ccc(C(=N)N)cc2)cc1` was tested, and the IC50 [1] was 11.7 µM.
